# Measured values reported in patent publication US20220185791A1, “POLYMORPHS OF A CARDIAC TROPONIN ACTIVATOR” (Amgen Inc., priority 2019, published 2022).
# Columns and labels:
# [1] = Solubility in water (excess solid, UPLC-UV); assay type: physicochemical; conditions: thermodynamic from solid, room temperature
# Excerpt: Suspensions were filtered.
# [2] = Solid stability (UPLC; XRPD, DSC, TGA); assay type: physicochemical; conditions: 5 weeks at 25° C./60% RH, 40° C./75% RH, 40° C./ambient or 60° C./ambient
# Description: Drug substance was stored at 25° C./60% RH, 40° C./75% RH, 40° C./ambient or 60° C./ambient conditions. Chemical stability was determined at each time point by dissolving the drug substance in 50% acetonitrile water for ultra performance liquid chromatography (“UPLC”) analysis. Physical stability was determined by analyzing the solid by XRPD, DSC and TGA.
compound,measurement,setting,value
"CS(=O)(=O)c1cncc(C(=O)N2[C@@H](C(=O)N[C@@H](c3cc(F)c(Cl)cc3F)C3CC3)C[C@H]3C[C@H]32)c1 [Form I, (1R,3R,5R)-N-((R)-(4-chloro-2,5-difluorophenyl)(cyclopropyl)methyl)-2-(5-(methylsulfonyl)nicotinoyl)-2-azabicyclo[3.1.0]hexane-3-carboxamide]",solubility,[1],9 µg/mL
same,Physical and chemical stability on storage,[2],physically and chemically stable
